Results: ChEMBL document CHEMBL1667786, “Synthesis and biological evaluation of indole-chalcone derivatives as β-amyloid imaging probe” (Bioorg Med Chem Lett, 2011)
pKi: −log10 of the molar value. Active and inactive are the calls of the source. No cut-off for these calls is given here.

Tests used:
[1] = Displacement of [125I]IMPY from amyloid beta 1 to 42 after 2 hrs
[2] = species: Mus musculus; experiment: Binding affinity to amyloid beta in APP/PS1 transgenic C57 mouse cortex at 1 uM after 10 mins by autoradiography; settings: tested as the 125I-labelled form
[3] = species: Mus musculus; experiment: Binding affinity to amyloid beta in APP/PS1 transgenic C57 mouse brain at 1 uM after 10 mins by Thioflavin-S fluorescence assay; assay type: tissue-based; settings: tested as the 125I-labelled form
[4] = test system: Liver; experiment: Biodistribution in ddY mouse liver assessed per gram of tissue at 1 uCi, iv after 120 mins; assay type: ADME, organism-based; settings: in vivo, 2 h
[5] = test system: Stomach; experiment: Biodistribution in ddY mouse stomach assessed per gorgan at 1 uCi, iv after 15 mins; assay type: ADME, organism-based; settings: in vivo, 0.25 h
[6] = test system: Intestine; experiment: Biodistribution in ddY mouse intestine assessed per gram of tissue at 1 uCi, iv after 30 mins; assay type: ADME, organism-based; settings: in vivo, 0.5 h
[7] = test system: Brain; experiment: Biodistribution in ddY mouse brain assessed per gram of tissue at 1 uCi, iv after 15 mins; assay type: ADME, organism-based; settings: in vivo, 0.25 h
[8] = test system: Heart; experiment: Biodistribution in ddY mouse heart assessed per gram of tissue at 1 uCi, iv after 60 mins; assay type: ADME, organism-based; settings: in vivo, 1 h
[9] = test system: Spleen; experiment: Biodistribution in ddY mouse spleen assessed per gram of tissue at 1 uCi, iv after 30 mins; assay type: ADME, organism-based; settings: in vivo, 0.5 h
[10] = test system: Brain; experiment: Biodistribution in ddY mouse brain assessed per gram of tissue at 1 uCi, iv after 60 mins; assay type: ADME, organism-based; settings: in vivo, 1 h
[11] = test system: Stomach; experiment: Biodistribution in ddY mouse stomach assessed per gorgan at 1 uCi, iv after 60 mins; assay type: ADME, organism-based; settings: in vivo, 1 h
[12] = test system: Spleen; experiment: Biodistribution in ddY mouse spleen assessed per gram of tissue at 1 uCi, iv after 2 mins; assay type: ADME, organism-based; settings: in vivo
[13] = test system: Liver; experiment: Biodistribution in ddY mouse liver assessed per gram of tissue at 1 uCi, iv after 60 mins; assay type: ADME, organism-based; settings: in vivo, 1 h
[14] = test system: Spleen; experiment: Biodistribution in ddY mouse spleen assessed per gram of tissue at 1 uCi, iv after 60 mins; assay type: ADME, organism-based; settings: in vivo, 1 h
[15] = test system: Liver; experiment: Biodistribution in ddY mouse liver assessed per gram of tissue at 1 uCi, iv after 30 mins; assay type: ADME, organism-based; settings: in vivo, 0.5 h
[16] = test system: Lung; experiment: Biodistribution in ddY mouse lung assessed per gram of tissue at 1 uCi, iv after 2 mins; assay type: ADME, organism-based; settings: in vivo
[17] = test system: Lung; experiment: Biodistribution in ddY mouse lung assessed per gram of tissue at 1 uCi, iv after 120 mins; assay type: ADME, organism-based; settings: in vivo, 2 h
[18] = test system: Brain; experiment: Biodistribution in ddY mouse brain assessed per gram of tissue at 1 uCi, iv after 30 mins; assay type: ADME, organism-based; settings: in vivo, 0.5 h
[19] = test system: Lung; experiment: Biodistribution in ddY mouse lung assessed per gram of tissue at 1 uCi, iv after 30 mins; assay type: ADME, organism-based; settings: in vivo, 0.5 h
[20] = test system: Spleen; experiment: Biodistribution in ddY mouse spleen assessed per gram of tissue at 1 uCi, iv after 15 mins; assay type: ADME, organism-based; settings: in vivo, 0.25 h
[21] = test system: Liver; experiment: Biodistribution in ddY mouse liver assessed per gram of tissue at 1 uCi, iv after 15 mins; assay type: ADME, organism-based; settings: in vivo, 0.25 h
[22] = test system: Brain; experiment: Biodistribution in ddY mouse brain assessed per gram of tissue at 1 uCi, iv after 120 mins; assay type: ADME, organism-based; settings: in vivo, 2 h
[23] = test system: Heart; experiment: Biodistribution in ddY mouse heart assessed per gram of tissue at 1 uCi, iv after 15 mins; assay type: ADME, organism-based; settings: in vivo, 0.25 h
[24] = test system: Lung; experiment: Biodistribution in ddY mouse lung assessed per gram of tissue at 1 uCi, iv after 60 mins; assay type: ADME, organism-based; settings: in vivo, 1 h
[25] = test system: Liver; experiment: Biodistribution in ddY mouse liver assessed per gram of tissue at 1 uCi, iv after 2 mins; assay type: ADME, organism-based; settings: in vivo
[26] = test system: Intestine; experiment: Biodistribution in ddY mouse intestine assessed per gram of tissue at 1 uCi, iv after 60 mins; assay type: ADME, organism-based; settings: in vivo, 1 h
[27] = test system: Blood; experiment: Biodistribution in ddY mouse blood assessed per gram of tissue at 1 uCi, iv after 60 mins; assay type: ADME, organism-based; settings: in vivo, 1 h
[28] = test system: Intestine; experiment: Biodistribution in ddY mouse intestine assessed per gram of tissue at 1 uCi, iv after 2 mins; assay type: ADME, organism-based; settings: in vivo
[29] = test system: Blood; experiment: Biodistribution in ddY mouse blood assessed per gram of tissue at 1 uCi, iv after 120 mins; assay type: ADME, organism-based; settings: in vivo, 2 h
[30] = test system: Lung; experiment: Biodistribution in ddY mouse lung assessed per gram of tissue at 1 uCi, iv after 15 mins; assay type: ADME, organism-based; settings: in vivo, 0.25 h
[31] = test system: Blood; experiment: Biodistribution in ddY mouse blood assessed per gram of tissue at 1 uCi, iv after 30 mins; assay type: ADME, organism-based; settings: in vivo, 0.5 h
[32] = test system: Brain; experiment: Biodistribution in ddY mouse brain assessed per gram of tissue at 1 uCi, iv after 2 mins; assay type: ADME, organism-based; settings: in vivo
[33] = test system: Stomach; experiment: Biodistribution in ddY mouse stomach assessed per gorgan at 1 uCi, iv after 120 mins; assay type: ADME, organism-based; settings: in vivo, 2 h
[34] = test system: Heart; experiment: Biodistribution in ddY mouse heart assessed per gram of tissue at 1 uCi, iv after 2 mins; assay type: ADME, organism-based; settings: in vivo
[35] = test system: Blood; experiment: Biodistribution in ddY mouse blood assessed per gram of tissue at 1 uCi, iv after 2 mins; assay type: ADME, organism-based; settings: in vivo
[36] = test system: Intestine; experiment: Biodistribution in ddY mouse intestine assessed per gram of tissue at 1 uCi, iv after 120 mins; assay type: ADME, organism-based; settings: in vivo, 2 h
[37] = test system: Intestine; experiment: Biodistribution in ddY mouse intestine assessed per gram of tissue at 1 uCi, iv after 15 mins; assay type: ADME, organism-based; settings: in vivo, 0.25 h
[38] = test system: Stomach; experiment: Biodistribution in ddY mouse stomach assessed per gorgan at 1 uCi, iv after 2 mins; assay type: ADME, organism-based; settings: in vivo
[39] = test system: Kidney; experiment: Biodistribution in ddY mouse kidney assessed per gram of tissue at 1 uCi, iv after 2 mins; assay type: ADME, organism-based; settings: in vivo
[40] = test system: Kidney; experiment: Biodistribution in ddY mouse kidney assessed per gram of tissue at 1 uCi, iv after 60 mins; assay type: ADME, organism-based; settings: in vivo, 1 h
[41] = test system: Blood; experiment: Biodistribution in ddY mouse blood assessed per gram of tissue at 1 uCi, iv after 15 mins; assay type: ADME, organism-based; settings: in vivo, 0.25 h
[42] = test system: Kidney; experiment: Biodistribution in ddY mouse kidney assessed per gram of tissue at 1 uCi, iv after 30 mins; assay type: ADME, organism-based; settings: in vivo, 0.5 h
[43] = test system: Kidney; experiment: Biodistribution in ddY mouse kidney assessed per gram of tissue at 1 uCi, iv after 15 mins; assay type: ADME, organism-based; settings: in vivo, 0.25 h
[44] = test system: Heart; experiment: Biodistribution in ddY mouse heart assessed per gram of tissue at 1 uCi, iv after 120 mins; assay type: ADME, organism-based; settings: in vivo, 2 h
[45] = test system: Stomach; experiment: Biodistribution in ddY mouse stomach assessed per gorgan at 1 uCi, iv after 30 mins; assay type: ADME, organism-based; settings: in vivo, 0.5 h
[46] = test system: Kidney; experiment: Biodistribution in ddY mouse kidney assessed per gram of tissue at 1 uCi, iv after 120 mins; assay type: ADME, organism-based; settings: in vivo, 2 h
[47] = test system: Spleen; experiment: Biodistribution in ddY mouse spleen assessed per gram of tissue at 1 uCi, iv after 120 mins; assay type: ADME, organism-based; settings: in vivo, 2 h
[48] = test system: Heart; experiment: Biodistribution in ddY mouse heart assessed per gram of tissue at 1 uCi, iv after 30 mins; assay type: ADME, organism-based; settings: in vivo, 0.5 h

Structure (SMILES): COc1ccc(C(=O)/C=C/c2ccc3[nH]ccc3c2)cc1
- pKi [1]: 8.07

Structure (SMILES): CN(C)c1ccc(/C=C/C(=O)c2ccc(I)cc2)cc1
- Activity [1]: Dose-dependent effect
- pKi [1]: 8.71

Structure (SMILES): O=C(/C=C/c1ccc2[nH]ccc2c1)c1ccc(I)cc1
- Activity [2]: Active
- pKi [1]: 8.09
- Activity [3]: Active

Structure (SMILES): CNc1ccc(C(=O)/C=C/c2ccc3[nH]ccc3c2)cc1
- pKi [1]: 7.29

Structure (SMILES): COc1ccc2cc(C(=O)/C=C/c3ccc4[nH]ccc4c3)ccc2c1
- pKi [1]: 8.35

Structure (SMILES): O=C(/C=C/c1ccc2[nH]ccc2c1)c1ccc(Cl)cc1
- pKi [1]: 8.07

Structure (SMILES): O=C(/C=C/c1ccc2[nH]ccc2c1)c1ccc(Br)cc1
- pKi [1]: 8.05

Structure (SMILES): O=C(/C=C/c1ccc2[nH]ccc2c1)c1ccc(F)cc1
- pKi [1]: 7.46

Structure (SMILES): CN(C)c1ccc(C(=O)/C=C/c2ccc3[nH]ccc3c2)cc1
- pKi [1]: 8.29

Structure (SMILES): O=C(/C=C/c1ccc2[nH]ccc2c1)c1ccc(O)cc1
- pKi [1]: < 6.44

Structure (SMILES): Nc1ccc(C(=O)/C=C/c2ccc3[nH]ccc3c2)cc1
- pKi [1]: < 6.00

Structure (SMILES): O=C(/C=C/c1ccc2[nH]ccc2c1)c1ccc([125I])cc1
- Drug uptake [4]: 1.43 %ID
- Drug uptake [5]: 1.07 %ID
- Drug uptake [6]: 2.32 %ID
- Drug uptake [7]: 0.29 %ID
- Drug uptake [8]: 1.61 %ID
- Drug uptake [9]: 2.4 %ID
- Drug uptake [10]: 0.21 %ID
- Drug uptake [11]: 0.96 %ID
- Drug uptake [12]: 3.02 %ID
- Drug uptake [13]: 1.48 %ID
- Drug uptake [14]: 2.27 %ID
- Drug uptake [15]: 1.91 %ID
- Drug uptake [16]: 7.33 %ID
- Drug uptake [17]: 3.19 %ID
- Drug uptake [18]: 0.2 %ID
- Drug uptake [19]: 4.2 %ID
- Drug uptake [20]: 2.96 %ID
- Drug uptake [21]: 2.21 %ID
- Drug uptake [22]: 0.13 %ID
- Drug uptake [23]: 2.27 %ID
- Drug uptake [24]: 3.4 %ID
- Drug uptake [25]: 2.69 %ID
- Drug uptake [26]: 1.72 %ID
- Drug uptake [27]: 4.15 %ID
- Drug uptake [28]: 1.36 %ID
- Drug uptake [29]: 3.72 %ID
- Drug uptake [30]: 4.86 %ID
- Drug uptake [31]: 4.79 %ID
- Drug uptake [32]: 0.41 %ID
- Drug uptake [33]: 1.19 %ID
- Drug uptake [34]: 3.27 %ID
- Drug uptake [35]: 8.85 %ID
- Drug uptake [36]: 2.13 %ID
- Drug uptake [37]: 2.01 %ID
- Drug uptake [38]: 2.01 %ID
- Drug uptake [39]: 7.3 %ID
- Drug uptake [40]: 3.11 %ID
- Drug uptake [41]: 5.7 %ID
- Drug uptake [42]: 3.26 %ID
- Drug uptake [43]: 4.03 %ID
- Drug uptake [44]: 1.33 %ID
- Drug uptake [45]: 0.85 %ID
- Drug uptake [46]: 2.78 %ID
- Drug uptake [47]: 1.89 %ID
- Drug uptake [48]: 1.72 %ID
